SMILES strings stand for the structures. Like-named read-outs stand apart in the source and are kept apart here.

We go through one compound from US8242160B2, “Inhibitors of ubiquitin E1” (The United States of America, as represented by the …, priority 2005, dated 2012).

For one experiment, the system named is GST-Mdm2. In words: Standard Mdm2 in vitro ubiquitination assay (E1+E2+E3), gel-based with 32P-labeled ubiquitin. In kind it is biochemical. The source says: The ability of a compound to inhibit E1 activity may also be examined by determining the ability of the compound to inhibit Mdm2 autoubiquitination, which is dependent on E1, as well as E2. For in vitro assays Mdm2 can be expressed as a GST fusion. This allows for a high level of expression of protein that can be purified on glutathione Sepharose. Detection of ubiquitination of Mdm2 can be accomplished, for example, using ^32P-labeled ubiquitin, Western blotting with anti-ubiquitin, or by looking at a shift in the molecular weight of GST fusion by Western blotting with anti-GST. A variety of in vitro assays that measure levels of self-ubiquitinated Mdm2 can be employed, such as for example, immunoprecipitation of ubiquitinated Mdm2; gel assays wherein the amount of ubiquitinated Mdm2 is measured by densitometric scanning or where covalent attachment of radio-labeled or otherwise tagged ubiquitin to Mdm2 or p53 is measured; Western blot analysis, or other known techniques such as ELISA, immunoprecipitation, RIA, and the like. […]

The subject of a further experiment is IκBα. In words: TNFα-induced IκBα degradation in cells. In kind it is cell-based.
For another experiment, the system named is p53. Description: p53-driven luciferase reporter assay. In kind it is cell-based. The source says: FIG. 5B depicts the results of reporter assays showing that the p53 induced by 4-[4-(5-nitro-furan-2-ylmethylene)-3,5-dioxo-pyrazolidin-1-yl]-benzoic acid methyl acid is transcriptionally active.
The next experiment has as its target T1, His6-E1 (Homo sapiens, UniProt P22314).
T1 sequence (P22314 1-1058): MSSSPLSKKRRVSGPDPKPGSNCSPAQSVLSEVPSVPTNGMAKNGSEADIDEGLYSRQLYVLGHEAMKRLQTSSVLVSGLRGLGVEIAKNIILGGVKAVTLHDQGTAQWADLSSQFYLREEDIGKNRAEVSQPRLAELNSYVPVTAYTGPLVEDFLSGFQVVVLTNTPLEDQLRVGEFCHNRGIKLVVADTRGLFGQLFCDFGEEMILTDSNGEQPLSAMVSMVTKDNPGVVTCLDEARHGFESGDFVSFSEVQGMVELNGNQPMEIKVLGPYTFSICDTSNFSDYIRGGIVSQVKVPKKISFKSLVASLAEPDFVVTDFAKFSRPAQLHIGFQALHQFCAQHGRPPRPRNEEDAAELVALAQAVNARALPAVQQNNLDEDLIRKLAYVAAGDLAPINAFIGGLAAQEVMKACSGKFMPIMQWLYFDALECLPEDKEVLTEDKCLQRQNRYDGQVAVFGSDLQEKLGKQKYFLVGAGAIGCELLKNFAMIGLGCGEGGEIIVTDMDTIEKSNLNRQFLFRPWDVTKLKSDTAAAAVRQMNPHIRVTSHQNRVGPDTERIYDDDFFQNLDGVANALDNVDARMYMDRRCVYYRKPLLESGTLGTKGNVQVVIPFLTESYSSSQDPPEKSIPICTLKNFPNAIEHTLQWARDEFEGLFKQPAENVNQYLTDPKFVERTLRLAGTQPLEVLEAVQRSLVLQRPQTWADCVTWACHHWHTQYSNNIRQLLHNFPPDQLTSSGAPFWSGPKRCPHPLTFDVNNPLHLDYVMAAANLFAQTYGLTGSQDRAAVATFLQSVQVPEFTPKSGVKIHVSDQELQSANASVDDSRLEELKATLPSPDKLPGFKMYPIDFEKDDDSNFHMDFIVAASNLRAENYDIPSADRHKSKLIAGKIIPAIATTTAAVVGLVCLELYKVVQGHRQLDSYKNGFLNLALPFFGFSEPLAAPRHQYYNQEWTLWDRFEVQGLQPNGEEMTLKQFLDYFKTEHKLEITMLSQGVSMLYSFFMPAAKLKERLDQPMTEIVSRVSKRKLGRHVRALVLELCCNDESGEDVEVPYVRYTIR
Description: Bead immobilized His6-E1: wash-out and glutathione competition. In kind it is biochemical. The protocol:
Bead immobilized His6-E1 was treated with E1 inhibitor 4-[4-(5-nitro-furan-2-ylmethylene)-3,5-dioxo-pyrazolidin-1-yl]-benzoic acid methyl acid (E1 41) at a range of concentrations (0-50 μm) as indicated in FIG. 9A. The beads were subjected to wash (+wash) or no wash (−wash) conditions.
The ability of a compound to inhibit E1 activity may come from the ability of the compound to interfere with the formation of thiolester linkages between ubiquitin and E1. Next, the biological activity of E1 41 was tested to examine if it can be inhibited or prevented by treatment with an excess of reduced glutathione. […] Thus, E1 41 can act as a target for nucleophilic attack by active site thiol of E1 (e.g., a central double bond of a compound can serve as Michael-acceptor for the nucleophilic thiol in a Michael-type reaction).

For the compound `COC(=O)c1ccc(N2NC(=O)/C(=C/c3ccc([N+](=O)[O-])o3)C2=O)cc1` [E1-41, 4-[4-(5-nitro-furan-2-ylmethylene)-3,5-dioxo-pyrazolidin-1-yl]-benzoic acid methyl acid], the entries for the “Mdm2 autoubiquitination in vitro (high molecular weight species)” value in the experiment with GST-Mdm2 and in the experiment on GST-Mdm2 (listed as compound 41) were “prevent generation of high molecular weight species promoted by Mdm2 in a dose-dependent manner” and “inhibits autoubiquitination of Mdm2 in vitro”, respectively. Besides, the “TNFα-induced IκBα degradation” value in the experiment on IκBα was “prevents TNFα-induced IκBα degradation”. The “activation of p53-driven luciferase reporter” value in the experiment on p53 is “activated a p53-driven luciferase reporter to a level comparable to adriamycin”. In addition, the “removal of compound from E1 by washing” value at His6-E1 (0-50 μm, wash versus no wash) was “cannot be washed away”. The “effect of reduced glutathione on the inhibitory action on E1” value at His6-E1 (50 μM compound, GSH 0.1-10 mM) is given as “can be prevented by the addition of reduced glutathione (GSH) in a dose-dependent manner”.
